How the values were obtained:
human recombinant HDAC1 = target: T1, human recombinant HDAC1 (Homo sapiens, UniProt Q13547); test: In vitro HDAC enzyme activity inhibition assay (HDAC1); assay type: biochemical; settings: Fluor de Lys-SIRT1 substrate 10 μM, 30° C., 60 minutes, fluorescence
T1 construct: purchased Enzo Life Sciences, Inc. BML-SE456
Method: (§1) In order to confirm the selectivity of the compounds represented by Chemical Formula I of the present invention to HDAC6 through HDAC1 and HDAC6 enzyme activity inhibition experiments, a comparison experiment was performed using the material that has already been developed as a control group.
(§2) HDAC enzyme activity was measured using the HDAC Fluorimetric Drug Discovery Kit (Enzo Life Sciences, Inc., BML-AK511, 516). For the HDAC1 enzyme activity test, human recombinant HDAC1 (BML-SE456) was used as an enzyme source and Fluor de Lys-SIRT1 (BNL-KI177) was used as a substrate. After dispensing 5-fold diluted compounds into a 96-well plate, 0.3 μg of enzyme and 10 μM substrate were added to each well of the plate and allowed to react at 30° C. for 60 minutes. Next, Fluor de Lys Developer II (BML-KI176) was added and reacted for 30 minutes to complete the reaction, and then the fluorescence values (Ex 360, Em 460) were measured using a multi-plate reader (Flexstation 3, Molecular Device). The HDAC6 enzymes were tested using human recombinant HDAC6 (382180) from Calbiochem Inc., according to the same protocol as the HDAC1 enzyme activity test method. With respect to the final result values, respective IC50 values were calculated using GraphPad Prism 4.0 program, and results thereof were summarized in Table 4 below.

human recombinant HDAC6 = target: T2, human recombinant HDAC6 (Homo sapiens, UniProt Q9UBN7); test: In vitro HDAC enzyme activity inhibition assay (HDAC6); assay type: biochemical; settings: for HDAC6 selectivity (fold): HDAC6 over HDAC1; for IC50: same protocol as the HDAC1 test, human recombinant HDAC6 (Calbiochem)
T2 construct: purchased Calbiochem Inc. 382180
T2 sequence (Q9UBN7 1-1215): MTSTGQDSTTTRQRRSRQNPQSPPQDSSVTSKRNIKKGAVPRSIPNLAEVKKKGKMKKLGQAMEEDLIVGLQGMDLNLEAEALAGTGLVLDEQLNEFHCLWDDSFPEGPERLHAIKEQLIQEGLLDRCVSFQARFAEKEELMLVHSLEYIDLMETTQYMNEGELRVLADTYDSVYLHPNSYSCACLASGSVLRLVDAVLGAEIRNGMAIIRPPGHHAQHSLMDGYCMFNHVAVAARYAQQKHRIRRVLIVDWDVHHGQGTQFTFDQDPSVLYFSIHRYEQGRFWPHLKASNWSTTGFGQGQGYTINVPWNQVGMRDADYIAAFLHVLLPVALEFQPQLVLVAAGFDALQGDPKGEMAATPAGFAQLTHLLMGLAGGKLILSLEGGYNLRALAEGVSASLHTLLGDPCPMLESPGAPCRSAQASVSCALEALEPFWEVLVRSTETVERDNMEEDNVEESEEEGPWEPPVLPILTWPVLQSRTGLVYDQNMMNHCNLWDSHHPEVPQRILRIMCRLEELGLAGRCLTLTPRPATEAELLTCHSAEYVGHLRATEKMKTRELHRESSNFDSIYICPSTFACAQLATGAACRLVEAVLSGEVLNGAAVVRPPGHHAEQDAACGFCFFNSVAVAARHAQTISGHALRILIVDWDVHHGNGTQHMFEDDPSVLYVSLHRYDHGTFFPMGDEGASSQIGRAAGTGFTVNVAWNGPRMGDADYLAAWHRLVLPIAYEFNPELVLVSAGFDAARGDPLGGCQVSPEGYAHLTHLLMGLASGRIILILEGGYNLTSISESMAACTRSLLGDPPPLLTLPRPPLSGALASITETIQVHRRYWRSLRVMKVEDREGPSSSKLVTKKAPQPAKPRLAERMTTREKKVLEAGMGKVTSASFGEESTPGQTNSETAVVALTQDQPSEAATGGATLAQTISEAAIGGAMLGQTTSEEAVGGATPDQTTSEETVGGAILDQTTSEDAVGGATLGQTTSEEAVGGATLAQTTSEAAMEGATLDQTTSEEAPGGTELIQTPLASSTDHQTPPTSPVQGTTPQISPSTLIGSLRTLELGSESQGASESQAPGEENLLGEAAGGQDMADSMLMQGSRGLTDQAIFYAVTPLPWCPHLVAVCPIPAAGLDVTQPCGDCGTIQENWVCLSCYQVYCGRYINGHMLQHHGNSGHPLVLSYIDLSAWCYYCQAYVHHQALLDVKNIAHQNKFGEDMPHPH
Method: as §1, §2

T1 sequence (Q13547 whole entry): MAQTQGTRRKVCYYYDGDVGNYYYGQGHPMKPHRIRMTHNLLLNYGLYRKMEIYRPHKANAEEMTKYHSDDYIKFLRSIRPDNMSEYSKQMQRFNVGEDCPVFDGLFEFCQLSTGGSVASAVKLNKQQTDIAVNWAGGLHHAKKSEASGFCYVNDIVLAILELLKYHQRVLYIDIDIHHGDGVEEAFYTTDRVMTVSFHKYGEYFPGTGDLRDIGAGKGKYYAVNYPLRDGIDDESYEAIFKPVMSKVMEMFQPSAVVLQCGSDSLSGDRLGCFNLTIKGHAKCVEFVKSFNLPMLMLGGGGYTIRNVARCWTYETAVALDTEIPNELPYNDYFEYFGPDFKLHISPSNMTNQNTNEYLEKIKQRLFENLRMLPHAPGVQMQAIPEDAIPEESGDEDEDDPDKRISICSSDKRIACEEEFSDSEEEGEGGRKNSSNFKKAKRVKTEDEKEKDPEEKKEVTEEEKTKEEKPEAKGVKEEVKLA

SMILES	IC50 (human recombinant HDAC1) [nM]	HDAC6 selectivity (fold) (human recombinant HDAC6)	IC50 (human recombinant HDAC6) [nM]
CN1CCC(S(=O)(=O)N(Cc2cn3ccc(-c4nnc(C(F)F)o4)cc3n2)c2cccc(F)c2)CC1 [Compound 4236, N-((7-(5-(difluoromethyl)-1,3,4-oxadiazol-2-yl)imidazo[1,2-a]pyridin-2-yl)methyl)-N-(3-fluorophenyl)-1-methylpiperidine-4-sulfonamide]	> 50000	678	73.8
CCN1CCC(S(=O)(=O)N(Cc2cn3ccc(-c4nnc(C(F)F)o4)cc3n2)c2cccc(F)c2)CC1 [Compound 4237, N-((7-(5-(difluoromethyl)-1,3,4-oxadiazol-2-yl)imidazo[1,2-a]pyridin-2-yl)methyl)-1-ethyl-N-(3-fluorophenyl)-piperidine-4-sulfonamide]	> 50000	821	60.9
CC(C)N1CCC(S(=O)(=O)N(Cc2cn3ccc(-c4nnc(C(F)F)o4)cc3n2)c2cccc(F)c2)CC1 [Compound 4238, N-((7-(5-(difluoromethyl)-1,3,4-oxadiazol-2-yl)imidazo[1,2-a]pyridin-2-yl)methyl)-N-(3-fluorophenyl)-1-isopropylpiperidine-4-sulfonamide]	> 50000	653	76.6
CC(CO)N1CCC(S(=O)(=O)N(Cc2cn3ccc(-c4nnc(C(F)F)o4)cc3n2)c2cccc(F)c2)CC1 (stereo not drawn) [Compound 4239, N-((7-(5-(difluoromethyl)-1,3,4-oxadiazol-2-yl)imidazo[1,2-a]pyridin-2-yl)methyl)-N-(3-fluorophenyl)-1-(1-hydroxypropan-2-yl)piperidine-4-sulfonamide]	> 50000	635	78.8
O=S(=O)(C1CCN(C2CCC2)CC1)N(Cc1cn2ccc(-c3nnc(C(F)F)o3)cc2n1)c1cccc(F)c1 [Compound 4240, 1-cyclobutyl-N-((7-(5-(difluoromethyl)-1,3,4-oxadiazol-2-yl)imidazo[1,2-a]pyridin-2-yl)methyl)-N-(3-fluorophenyl)piperidine-4-sulfonamide]	> 50000	936	53.4
O=S(=O)(C1CCN(C2COC2)CC1)N(Cc1cn2ccc(-c3nnc(C(F)F)o3)cc2n1)c1cccc(F)c1 [Compound 4241]	> 50000	715	69.9
O=S(=O)(C1CCN(C2CCCCC2)CC1)N(Cc1cn2ccc(-c3nnc(C(F)F)o3)cc2n1)c1cccc(F)c1 [Compound 4242, 1-cyclohexyl-N-((7-(5-(difluoromethyl)-1,3,4-oxadiazol-2-yl)imidazo[1,2-a]pyridin-2-yl)methyl)-N-(3-fluorophenyl)piperidine-4-sulfonamide]	> 50000	800	62.5
O=S(=O)(C1CCN(C2CCOCC2)CC1)N(Cc1cn2ccc(-c3nnc(C(F)F)o3)cc2n1)c1cccc(F)c1 [Compound 4243, N-((7-(5-(difluoromethyl)-1,3,4-oxadiazol-2-yl)imidazo[1,2-a]pyridin-2-yl)methyl)-N-(3-fluorophenyl)-1-(tetrahydro-2H-pyran-4-yl)piperidine-4-sulfonamide]	> 50000	530	94.3
O=S(=O)(C1CCN(C2CCC(F)(F)CC2)CC1)N(Cc1cn2ccc(-c3nnc(C(F)F)o3)cc2n1)c1cccc(F)c1 [Compound 4244, 1-(4,4-difluorocyclohexyl)-N-((7-(5-(difluoromethyl)-1,3,4-oxadiazol-2-yl)imidazo[1,2-a]pyridin-2-yl)methyl)-N-(3-fluorophenyl)piperidine-4-sulfonamide]	> 50000	525	95.3
CC(=O)N1CCC(S(=O)(=O)N(Cc2cn3ccc(-c4nnc(C(F)F)o4)cc3n2)c2cccc(F)c2)CC1 [Compound 4245, 1-acetyl-N-((7-(5-(difluoromethyl)-1,3,4-oxadiazol-2-yl)imidazo[1,2-a]pyridin-2-yl)methyl)-N-(3-fluorophenyl)piperidine-4-sulfonamide]	> 50000	1055	47.4
CCC(=O)N1CCC(S(=O)(=O)N(Cc2cn3ccc(-c4nnc(C(F)F)o4)cc3n2)c2cccc(F)c2)CC1 [Compound 4246, N-((7-(5-(difluoromethyl)-1,3,4-oxadiazol-2-yl)imidazo[1,2-a]pyridin-2-yl)methyl)-N-(3-fluorophenyl)-1-propionylpiperidine-4-sulfonamide]	> 50000	660	75.8
O=C(CO)N1CCC(S(=O)(=O)N(Cc2cn3ccc(-c4nnc(C(F)F)o4)cc3n2)c2cccc(F)c2)CC1 [Compound 4247, N-((7-(5-(difluoromethyl)-1,3,4-oxadiazol-2-yl)imidazo[1,2-a]pyridin-2-yl)methyl)-N-(3-fluorophenyl)-1-(2-hydroxyacetyl)piperidine-4-sulfonamide]	> 50000	980	51
O=C(C1CCC1)N1CCC(S(=O)(=O)N(Cc2cn3ccc(-c4nnc(C(F)F)o4)cc3n2)c2cccc(F)c2)CC1 [Compound 4248, 1-(cyclobutanecarbonyl)-N-((7-(5-(difluoromethyl)-1,3,4-oxadiazol-2-yl)imidazo[1,2-a]pyridine-2-yl)methyl)-N-(3-fluorophenyl)piperidine-4-sulfonamide]	> 50000	542	92.2
O=C(C1COC1)N1CCC(S(=O)(=O)N(Cc2cn3ccc(-c4nnc(C(F)F)o4)cc3n2)c2cccc(F)c2)CC1 [Compound 4249, N-((7-(5-(difluoromethyl)-1,3,4-oxadiazol-2-yl)imidazo[1,2-a]pyridin-2-yl)methyl)-N-(3-fluorophenyl)-1-(oxetan-3-carbonyl)piperidine-4-sulfonamide]	> 50000	684	73.1
O=C(N1CCC(S(=O)(=O)N(Cc2cn3ccc(-c4nnc(C(F)F)o4)cc3n2)c2cccc(F)c2)CC1)C(F)(F)F [Compound 4250, N-((7-(5-(difluoromethyl)-1,3,4-oxadiazol-2-yl)imidazo[1,2-a]pyridin-2-yl)methyl)-N-(3-fluorophenyl)-1-(2,2,2-trifluoroacetyl)piperidine-4-sulfonamide]	> 50000	431	116
CS(=O)(=O)N1CCC(S(=O)(=O)N(Cc2cn3ccc(-c4nnc(C(F)F)o4)cc3n2)c2cccc(F)c2)CC1 [Compound 4251, N-((7-(5-(difluoromethyl)-1,3,4-oxadiazol-2-yl)imidazo[1,2-a]pyridin-2-yl)methyl)-N-(3-fluorophenyl)-1-(methylsulfonyl)piperidine-4-sulfonamide]	> 50000	525	95.2
COC(=O)N1CCC(S(=O)(=O)N(Cc2cn3ccc(-c4nnc(C(F)F)o4)cc3n2)c2cccc(F)c2)CC1 [Compound 4252, methyl 4-(N-((7-(5-(difluoromethyl)-1,3,4-oxadiazol-2-yl)imidazo[1,2-a]pyridin-2-yl)methyl)-N-(3-fluorophenyl)sulfamoyl)piperidine-1-carboxylate]	> 50000	455	110

Source: patent US12466827B2, “1,3,4-oxadiazole derivative compounds as histone deacetylase 6 inhibitor, and the pharmaceutical composition comprising the same” (CHONG KUN DANG PHARMACEUTICAL CORP., priority 2020, dated 2025)
